Tests used:
Type in all cases: in vivo
[1] = system: ivyleaf morningglory (Ipomoea hederecea); assay: Post-emergent Test I herbicidal activity
[2] = system: barnyardgrass (Echinochloa crs-galli); assay: Pre-emergent Test I herbicidal activity
Description: (§1) Pre-emergent Test I Seeds of test species were planted into round plastic pots (5-inch diameter) containing sandy loam soil. After planting, all pots were sub-irrigated 16 h prior to compound application. Compounds were dissolved in a 97:3 v/v (volume/volume) mixture of acetone and dimethyl sulfoxide (DMSO) and diluted to the appropriate concentration in a final application solution containing water, acetone, isopropanol, DMSO and Agri-dex (crop oil concentrate) in a 59:23:15:1.0:1.5 v/v ratio and 0.02% w/v (weight/volume) of Triton X-155 to obtain the spray solution containing the highest application rate. The high application rate was serial diluted with the above application solution to provide delivery of the compound at rates 1/2×, 1/4× and 1/8× of the highest rate (equivalent to 4.0, 2.0, 1.0, and 0.5 kg/ha, respectively). Formulated compound (2.7 mL) was applied pipetted evenly over the soil surface followed by incorporation with water (15 mL). Following treatment, pots were returned to the greenhouse for the duration of the experiment. The greenhouse was programmed for an approximate 15 h photoperiod which was maintained at about 23-29° C. during the day and 22-28° C. during the night. Nutrients and water were added on a regular basis through surface irrigation and supplemental lighting was provided with overhead metal halide 1000-Watt lamps as necessary. Herbicidal effect ratings were obtained 14 days after treatment. All evaluations were made relative to appropriate controls on a scale of 0 to 100 where 0 represents no herbicidal effect and 100 represents plant death or lack of emergence from the soil.

[3] = system: giant foxtail (Setaria faberi); assay: Pre-emergent Test I herbicidal activity
Description: as §1

[4] = system: ivyleaf morningglory (Ipomoea hederecea); assay: Pre-emergent Test I herbicidal activity
Description: as §1

wild oats (Avena fatua) = assay: Pre-emergent Test I herbicidal activity
Description: as §1

Structure (SMILES) | Visual Growth Reduction (%) 10 Days After Application IPOHE ([1]; 3.96 Kg ai/ha) | Visual Growth Reduction (%) 14 Days After Application, ECHCG ([2]; 3.96 Kg ai/ha) | Visual Growth Reduction (%) 14 Days After Application, SETFA ([3]; 3.96 Kg ai/ha) | Visual Growth Reduction (%) 14 Days After Application IPOHE ([4]; 3.96 Kg ai/ha) | Visual Growth Reduction (%) 14 Days After Application AVEFA (wild oats (Avena fatua); 3.96 Kg ai/ha) | Visual Growth Reduction (%) 14 Days After Application, ECHCG ([2]; 4 Kg ai/ha) | Visual Growth Reduction (%) 14 Days After Application, SETFA ([3]; 4 Kg ai/ha) | Visual Growth Reduction (%) 14 Days After Application IPOHE ([4]; 4 Kg ai/ha) | Visual Growth Reduction (%) 14 Days After Application AVEFA (wild oats (Avena fatua); 4 Kg ai/ha) | Visual Growth Reduction (%) 10 Days After Application IPOHE ([1]; 4 Kg ai/ha)
COC(=O)c1nc(-c2ccc3ccn(C)c3c2)c(F)c(N)c1Cl [Compound 1.10] | F (30-44) | F (30-44) | G (0-29) | G (0-29) | G (0-29) |  |  |  |  | 
Nc1c(F)c(-c2cccc3cc[nH]c23)nc(C(=O)O)c1Cl [Compound 1.48] |  |  |  |  |  | G (0-29) | G (0-29) | D (60-74) | G (0-29) | 
COC(=O)c1nc(-c2ccc3sccc3c2)cc(N)c1Cl [Compound 3.05] |  |  |  |  |  | A (95-100) | A (95-100) | A (95-100) | F (30-44) | B (85-94)
